According to patent US11396497B2, “Proteasome inhibitors” (New Mexico Tech University Research Park Corporation, priority 2018, dated 2022):
Where two headings read alike, the source gives them in different places.

Key:
[1] = molecular target: T1, ChT-L activity of the 26S proteasome (Homo sapiens, UniProt P28074); test: Proteasome inhibition after pre-incubation with newborn bovine serum; type: in vitro ADME; details: pre-incubation 1 hour at 37° C. with NBS
T1 sequence (P28074 60-263): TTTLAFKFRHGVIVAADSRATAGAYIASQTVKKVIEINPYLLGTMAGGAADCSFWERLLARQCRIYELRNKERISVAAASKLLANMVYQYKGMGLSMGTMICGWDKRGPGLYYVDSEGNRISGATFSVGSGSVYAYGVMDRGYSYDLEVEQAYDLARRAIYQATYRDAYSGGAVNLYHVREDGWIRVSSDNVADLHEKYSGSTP
Method: EDTA chelates divalent metal ions. By including EDTA during the pre-incubation step, EDTA protected compound 8 from being deactivated by NBS, shown by low proteasome activity below 5 nM of compound 8.
The assays were performed in biological triplicate, and the data points are reported with the corresponding standard deviations.

Jurkat cells = test: Apoptosis assay (Annexin V-FITC, flow cytometry); type: cell-based, human
Method: Apoptosis assay: 1 mL of Jurkat cells, at a density of 500,000 cells per milliliter, was added to 12 wells of a 24 well microtiter plate. Cells were treated immediately using a serial dilution of the synthesized proteasome inhibitors, the benzyl ester of Cystargolide B and the belactosin-cystargolide hybrid molecule. 10 μM Paclitaxel and 0.2 μg/mL Doxorubicin hydrochloride were used as positive apoptosis controls and non-treated cells were used as a negative control. The cells were then incubated for 24 h at 37° C. and 5% CO2. The following day, Annexin V-FITC conjugate was used to assay for the expression of phosphatidyl serine on the […] of the cellular membrane. The cells were briefly pelleted, aspirated, and resuspended in 300 μL of a reaction mixture containing 0.2 μL/mL of the Annexin V FITC solution, 2 mM CaCl2 to enable binding, and 2 μg/mL propidium iodide as an indicator of cell permeability. Each sample was incubated at 37° C. for 20 minutes, and then analyzed by flow cytometry. Single, whole cells were selected based on the forward and the side-scatter. With an excitation of 488 nm Annexin V-FITC binding was identified using FL1 533 nm emission. Propidium iodide staining was selected based on FL2 585 nm emission. […] Measurements were taken in biological triplicate for each sample, and the results were confirmed in technical triplicate.

[2] = molecular target: T2, ChT-L activity of 26S proteasomes in intact MCF-7 cells (Homo sapiens, UniProt P28074); test: Cell infiltration of PIs: proteasome inhibition in intact MCF7 cells; type: cell-based; details: intact MCF-7 cells treated, washed, lysed
T2 construct: endogenous in cells; host or cells: MCF7 cells (treated intact, then lysed)
T2 sequence (P28074 60-263): T1 sequence (P28074 60-263)
Method: 100 μL MCF7 cells at a concentration of 500,000 cells/mL were added to a 96 well microtiter plate and incubated overnight at 37° C. and 5% CO2 to allow cells to adhere at 100% confluency. The cells were treated and then incubated for at 37° C. and 5% CO2 for 1 hour as a standard time to allow for drug infiltration. […] The plate was rocked on ice for 1 hr and then 90 μL of cell lysate was transferred to a black 96 well microtiter plate. 10 μL of lysis buffer was added to the top of all wells containing treated cells and one set of control wells. 10 μL of 1 mM of compound 8 was added to the second set of control wells as a positive control for proteasome inhibition. The plate was then incubated at 37° C. for 15 minutes to allow for control drug binding. Chymotrypsin-like activity was then measured by adding 10 μL of 100 μM Suc-LLVY-AMC in lysis buffer to each well and then incubating for 1 h at 37° C. […] Standard deviation for cell infiltration was calculated by propagating the error from the two IC50 values.
The difference between proteasome inhibition within intact versus lysed cells was evaluated as a representative measure of PIs ability to infiltrate cells and access intracellular proteasomes. […] Assays were performed in biological triplicate, and the data points are reported with the corresponding standard deviations. […]

[3] = molecular target: T3, trypsin-like activity of the 26S proteasome (Homo sapiens, UniProt Q99436); test: Proteasome assay, trypsin-like (T-L) activity, SUC-RLR-AMC, Jurkat cell lysate; type: biochemical; details: Table 2, P1 analogues; ± S.D.; read-out: Proteasome Inhibition T-L-like IC50
T3 construct: endogenous in cells; host or cells: Jurkat (ATCC TIB-152, E6-1 clone) cell lysate
T3 sequence (Q99436 44-277): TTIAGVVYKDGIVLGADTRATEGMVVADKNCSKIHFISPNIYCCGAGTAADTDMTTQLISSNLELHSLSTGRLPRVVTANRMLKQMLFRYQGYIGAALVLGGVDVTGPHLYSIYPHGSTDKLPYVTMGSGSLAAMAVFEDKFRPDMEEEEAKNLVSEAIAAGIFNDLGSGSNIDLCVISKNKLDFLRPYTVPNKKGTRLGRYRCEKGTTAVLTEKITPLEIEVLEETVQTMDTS
Method: (§1) The lysate was stored at −80° C. until the sample was used for the proteasome assay.
(§2) The compounds were diluted with lysis buffer; 10 μL of the compound-containing solution was added to the test wells at ten times the final concentration. […] The results are reported as the average of at least 3 technical replicates of IC50 values for proteasome inhibition.

MCF7 cells = test: MTT assay cytotoxicity MCF7; details: Homo sapiens
Method: The cells were incubated at 37° C. in a humidified atmosphere with 5% CO2.
100 μL of cells were added to each well of a 96 well microtiter plate at a concentration of 4×10^4 cells/mL and incubated overnight to allow proper adhesion. (RPMI 8226 cells were plated at 4×10^5 cells/mL). The cells were treated with the panel of test compounds at a series of concentrations, along with vehicle control DMSO and untreated cells as controls. After 48 h incubation, 20 μL of MTT reagent (3-(4,5-dimethylthiazol-2-yl)-2,5-diphenyltetrazolium bromide) in PBS (5 mg/mL) was added to each well of the plates. The plate was incubated for 2 h at 37° C. For adherent cell lines, the media was removed from each well of the plate and the resulting formazan crystals dissolved in 100 μL of DMSO. For RPMI 8226 cells, 200 ul of DMF/SDS mix (50% DMF. 10% w/v SDS pH<4) was used to solubilize the formazan crystals. Optical density (OD) at 490 nm was measured using a microplate reader. Cells treated with 1 μM phenyl arsine oxide (PAO) served as a positive cell-killing control. Technical replicates of these assays were performed in biological quadruplicate, and the three best values were used for analysis in order to eliminate outliers. Data presented are the average IC50 value calculated from at least 3 technical replicates with the corresponding standard deviation.

RPMI 8226 cells = test: MTT assay cytotoxicity RPMI 8226; details: Homo sapiens
[4] = molecular target: T4, chymotrypsin-like activity of the 26S proteasome (Homo sapiens, UniProt P28074); test: Proteasome assay, chymotrypsin-like (ChT-L) activity, Suc-LLVY-AMC, Jurkat cell lysate; type: biochemical
T4 construct: endogenous in cells; host or cells: Jurkat (ATCC TIB-152, E6-1 clone) cell lysate
T4 sequence (P28074 60-263): T1 sequence (P28074 60-263)
Method: as §1, §2

[5] = system: ubiquitinated proteins in MCF7 cells; test: Western blot of ubiquitinated proteins; type: cell-based, human
Method: The cells were incubated for 9.5 hrs at 37° C. and 5% CO2. After washing with PBS twice, cells were scraped, pelleted and lysed with CytoBuster™ Protein Extraction Reagent \ containing 10 μM compound 8, 10 μM Na3VO4, 0.017 mg/mL Aprotinin, 1 mM PMSF, and 1% Protease Inhibitor Cocktail. Thereafter 30 μg of protein in sample buffer (50 mM Tris-HCl, 2% SDS, 10% Glycerol, 1% β-mercaptoethanol, 12.5 mM EDTA, 0.02% Bromophenol Blue, pH 6.8) that had been boiled at 90° C. for 5 min, was electrophoresed using 6/8% SDS-PAGE, and the protein transferred to a […] PVDF membrane using a BioRad Trans-Blot® SD at 15 V for 17 minutes. The membrane was blocked with 1× casein buffer (Diluted 1:10 in water from casein blocking buffer 10×), and probed with either the polyclonal rabbit anti β-Actin (1:500) or the polyclonal rabbit anti-ubiquitin antibody (1:300), and stained with goat anti-rabbit IgG (H+L) HRP conjugate (1:3000) secondary antibodies. Antibody-recognized bands were visualized by a standard horseradish peroxidase chemiluminescent assay with an ECL kit.

## CC[C@H](C)[C@@H]1C(=O)O[C@H]1C(=O)N[C@H](C(=O)N[C@H](C(=O)OCc1ccccc1)C(C)C)C(C)C [Compound 8, Benzyl ((2R,3S)-3-((S)-sec-butyl)-4-oxooxetane-2-carbonyl)-L-valyl-L-valinate]
[1]
  deactivation by newborn bovine serum: deactivates compound 8
Jurkat cells
  induction of apoptosis: induction of apoptosis
[2]
  times more active than compound 1, proteasome inhibition in intact cells: approximately 10 times
[3]
  IC50: 1520 ± 788 nM
MCF7 cells; MCF7, 48 h, read-out: Cytotoxicity MCF7 IC50
  IC50: 1410 ± 687 nM
MCF7 cells; MCF7, read-out: Cytotoxicity MCF7 IC50
  IC50: 1850 ± 261 nM
RPMI 8226 cells; RPMI-8226, 48 h, read-out: Cytotoxicity RPMI 8226 IC50
  IC50: 201 ± 82 nM
RPMI 8226 cells; RPMI-8226, read-out: Cytotoxicity RPMI 8226 IC50
  IC50: 192 ± 32.3 nM
[4]
  IC50: 7.1 ± 2.8 nM
[4]; Table 5, ± S.D., read-out: Proteasome Inhib. ChT-L IC50
  IC50: 7 ± 0.311 nM
[5]
  accumulation of ubiquitinated proteins: accumulation of ubiquitinated proteins
